Source: ChEMBL document CHEMBL5120920, “A Mitochondria-Targeted Phenylbutyric Acid Prodrug Confers Drastically Improved Anticancer Activities” (J Med Chem, 2022)
The source made the active and inactive calls. The rule behind the calls is not given here.

Key:
[1] = tested on: A-375; assay: Induction of apoptosis in human A-375 cells assessed as apoptotic cells at 5 uM measured after 48 hrs by Annexin V FITC/PI staining based flow cytometry analysis relative to control; type: functional
[2] = tested on: A-375; assay: Induction of mitochondrial membrane hyperpolarization in human A-375 cells assessed as JC-1 level at 2.5 to 10 uM incubated for 4 hrs by JC-1 staining based flow cytometry analysis relative to control; type: functional; conditions: dose 2.5-10 µM
[3] = Toxicity in BALB/c mouse assessed as animal death at 50 to 100 mg/kg, […] measured after 7 days; type: organism-based; conditions: in vivo, 168 h, dose 50-100 mg/kg, time 7 day
[4] = tested on: A-375; assay: Antitumor activity against human A-375 cells xenografted in nude mouse assessed as induction of apoptosis by measuring morphological changes at 40 mg/kg, ip measured once every two days for 14 days by TUNEL assay; type: functional, organism-based; conditions: time 14.0 day
[5] = tested on: A-375; assay: Effect on mitochondrial bio-energestics in human A-375 cells assessed as increase in OCR/ECRA ratio at 0.25 to 1 uM measured after 4 hrs; type: functional, cell-based; conditions: dose 0.25-1 µM
[6] = tested on: A-375; assay: Inhibition of cell migration in human A-375 cells incubated for 24 hrs by wound healing assay; type: functional, cell-based; conditions: dose 1.5-2.5 µM, DDE = dose-dependent effect
[7] = Toxicity in BALB/c mouse assessed as histopathological changes in lung at 50 to 100 mg/kg, iv measured after 7 days by H and E staining based assay; type: organism-based; conditions: in vivo, 168 h, dose 50-100 mg/kg, time 7 day
[8] = tested on: L02; assay: Induction of mitochondrial membrane hyperpolarization in human L02 cells assessed as JC-1 level at 2.5 to 10 uM incubated for 4 hrs by JC-1 staining based flow cytometry analysis relative to control; type: functional; conditions: dose 2.5-10 µM
[9] = Apparent permeability across basolateral to apical side in human Caco-2 cells at 2 uM measured after 2 hrs by LC-MS/MS analysis; type: ADME, cell-based
[10] = Toxicity in BALB/c mouse assessed as effect on body weight at 125 to 200 mg/kg, iv administered for 7 days and measured once per 2 days; type: organism-based; conditions: in vivo, 168 h, dose 125-200 mg/kg, time 7 day
[11] = tested on: A-375; assay: Induction of apoptosis in human A-375 cells assessed as apoptotic cells at 10 uM measured at 72 hrs by Annexin V FITC/PI staining based flow cytometry analysis relative to control; type: functional
[12] = Toxicity in BALB/c mouse assessed as histopathological changes in heart at 50 to 100 mg/kg, iv measured after 7 days by H and E staining based assay; type: organism-based; conditions: in vivo, 168 h, dose 50-100 mg/kg, time 7 day
[13] = tested on: A-375; assay: Inhibition of glycolysis in human A-375 cells assessed as reduction in extracellular acidification rate at 0.25 to 5 uM measured after 4 hrs; type: functional, cell-based; conditions: dose 0.25-5 µM
[14] = tested on: A-375; assay: Antitumor activity against human A-375 cells implanted in BALB/c mouse assessed as reduction in tumor weight at 40 mg/kg, ip measured once every two days for 14 days; type: functional, organism-based; conditions: time 14.0 day
[15] = Toxicity in BALB/c mouse assessed as death of animal at 125 to 200 mg/kg, iv administered for 7 days; type: organism-based; conditions: in vivo, 168 h, dose 125-200 mg/kg, time 7 day
[16] = Apparent permeability across apical to basolateral side in human Caco-2 cells at 2 uM measured after 2 hrs by LC-MS/MS analysis; type: ADME, cell-based
[17] = tested on: A-375; assay: Antiproliferative activity against human A-375 cells assessed as inhibition of cell viability incubated for 72 hrs by MTT assay; type: functional, cell-based; conditions: A-375, 72 h
[18] = tested on: A-375; assay: Cytotoxicity against human A-375 cells assessed as reduction in cell vaibility measured at 48 hrs in absence of BNPP by MTT assay; type: functional, cell-based; conditions: A-375, 48 h
[19] = tested on: MDA-MB-231; assay: Induction of mitochondrial membrane hyperpolarization in human MDA-MB-231 cells assessed as JC-1 level at 2.5 to 10 uM incubated for 4 hrs by JC-1 staining based flow cytometry analysis relative to control; type: functional; conditions: dose 2.5-10 µM
[20] = tested on: A-375; assay: Induction of cell cycle arrest in human A-375 cells assessed as accumulation at G1 phase at 7.5 uM incubated for 24 hrs by PI staining based flow cytometry analysis (reference value: 68.07 %); type: functional
[21] = tested on: HEK-293T; assay: Induction of mitochondrial membrane hyperpolarization in HEK293T cells assessed as JC-1 level at 2.5 to 10 uM incubated for 4 hrs by JC-1 staining based flow cytometry analysis relative to control; type: functional, Homo sapiens; conditions: dose 2.5-10 µM
[22] = tested on: HUVEC; assay: Induction of mitochondrial membrane hyperpolarization in HUVEC assessed as JC-1 level at 2.5 to 10 uM incubated for 4 hrs by JC-1 staining based flow cytometry analysis relative to control; type: functional, Homo sapiens; conditions: dose 2.5-10 µM
[23] = tested on: A-375; assay: Induction of mitochondrial membrane depolarization in human A-375 cells assessed as reduction in red fluorescence intensity incubated for 4 hrs by TMRM staining based fluorescence microscopy analysis; type: functional, cell-based; conditions: dose 2.5-10 µM, DDE = dose-dependent effect
[24] = tested on: A-375; assay: Induction of mitochondrial membrane depolarization in human A-375 cells assessed as increase in JC-1 monomer at 10 uM incubated for 4 hrs by JC-1 staining based flow cytometry analysis; type: functional, cell-based
[25] = tested on: A-375; assay: Antitumor activity against human A-375 cells xenografted in nude mouse assessed as induction of apoptosis by measuring morphological changes at 40 mg/kg, ip measured once every two days for 14 days by H and E staining based assay; type: functional, organism-based; conditions: time 14.0 day
[26] = tested on: A-375; assay: Induction of apoptosis in human A-375 cells assessed as apoptotic cells at 10 uM measured at 24 hrs by Annexin V FITC/PI staining based flow cytometry analysis relative to control; type: functional
[27] = tested on: A-375; assay: Induction of cell cycle arrest in human A-375 cells assessed as accumulation at G2 phase at 5 uM incubated for 24 hrs by PI staining based flow cytometry analysis (reference value: 7.92 %); type: functional
[28] = tested on: MDA-MB-231; assay: Antiproliferative activity against human MDA-MB-231 cells assessed as inhibition of cell viability incubated for 72 hrs by MTT assay; type: functional, cell-based; conditions: MDA-MB-231, 72 h
[29] = tested on: MCF7; assay: Induction of mitochondrial membrane hyperpolarization in human MCF7 cells assessed as JC-1 level at 2.5 to 10 uM incubated for 4 hrs by JC-1 staining based flow cytometry analysis relative to control; type: functional; conditions: dose 2.5-10 µM
[30] = tested on: A-375; assay: Antitumor activity against human A-375 cells xenografted in nude mouse assessed as tumor growth inhibition at 10 to 40 mg/kg, ip and measured once every two days for 14 days; type: functional, organism-based; conditions: dose 10-40 mg/kg, time 14.0 day
[31] = Toxicity in BALB/c mouse assessed as histopathological changes in kidney at 50 to 100 mg/kg, iv measured after 7 days by H and E staining based assay; type: organism-based; conditions: in vivo, 168 h, dose 50-100 mg/kg, time 7 day
[32] = tested on: A-375; assay: Inhibition of glycolysis in human A-375 cells assessed as reduction in extracellular acidification rate at 0.25 to 1 uM measured after 4 hrs; type: functional, cell-based; conditions: dose 0.25-1 µM
[33] = tested on: A549; assay: Antiproliferative activity against human A549 cells assessed as inhibition of cell viability incubated for 72 hrs by MTT assay; type: functional, cell-based; conditions: A549, 72 h
[34] = tested on: A-375; assay: Induction of cell cycle arrest in human A-375 cells assessed as accumulation at G1 phase at 5 uM incubated for 24 hrs by PI staining based flow cytometry analysis (reference value: 68.07 %); type: functional
[35] = Drug uptake in human A-375 cells mitochondria assessed as fold increase at 10 uM measured after 4 hrs relative to PBA; type: ADME; conditions: a-375, 4 h

O=C(CCCCCCCCC[P+](c1ccc(C(F)(F)F)cc1)(c1ccc(C(F)(F)F)cc1)c1ccc(C(F)(F)F)cc1)NC(COC(=O)CCCc1ccccc1)(COC(=O)CCCc1ccccc1)COC(=O)CCCc1ccccc1.[Br-]
Activity [1]: 12%
Activity [2]: 2.22%
Activity [3]: Non-Toxic
Activity [4]: Active
Activity [5]: Active
inhibition [6]: Dde
Activity [7]: Non-Toxic
Activity [8]: 11.49%
Papp B→A at 2 h, 2 µM [9]: 16.8 ×10⁻⁶ cm/s
Activity [10]: Non-Toxic
Activity [11]: 77%
Activity [12]: Non-Toxic
inhibition [13]: Active
Activity [14]: Active
Activity [15]: Non-Toxic
Papp A→B at 2 h, 2 µM [16]: 24.3 ×10⁻⁶ cm/s
IC50 [17]: 2.22 µM
IC50 [18]: 3.34 µM
Activity [19]: 3.27%
Activity [20]: 80.37%
Activity [21]: 18.91%
Activity [22]: 16.08%
Activity [23]: Dde
Activity [24]: Active
Activity [25]: Active
Activity [26]: 7%
Activity [27]: 8.85%
IC50 [28]: 3.71 µM
Activity [29]: 3.6%
Activity [30]: Active
Activity [31]: Non-Toxic
inhibition [32]: Active
IC50 [33]: 4.72 µM
Activity [34]: 75.69%
Drug uptake [35]: Active
